Experimental data: US20230124361A1, “SMALL MOLECULE STING ANTAGONISTS” (CURADEV PHARMA PVT. LTD., priority 2020, published 2023)

target: T1, STING (Homo sapiens, UniProt Q86WV6, G230A/H232R/R293Q/R71H); assay: Reporter gene expression assay in THP1-Dual cells (IRF pathway Lucia luciferase, 2',3'-cGAMP stimulation); format: cell-based; conditions: 10 min preincubation, 5 μM 2',3'-cGAMP, 20 hr, IRF reporter QUANTI-Luc, read-out: THP-1 (HAQ) Activity
T1 construct: host or cells: THP1-Dual cells (human THP-1 monocyte line with Lucia/SEAP reporters)
T1 sequence (Q86WV6 whole entry R71H/G230A/H232R/R293Q): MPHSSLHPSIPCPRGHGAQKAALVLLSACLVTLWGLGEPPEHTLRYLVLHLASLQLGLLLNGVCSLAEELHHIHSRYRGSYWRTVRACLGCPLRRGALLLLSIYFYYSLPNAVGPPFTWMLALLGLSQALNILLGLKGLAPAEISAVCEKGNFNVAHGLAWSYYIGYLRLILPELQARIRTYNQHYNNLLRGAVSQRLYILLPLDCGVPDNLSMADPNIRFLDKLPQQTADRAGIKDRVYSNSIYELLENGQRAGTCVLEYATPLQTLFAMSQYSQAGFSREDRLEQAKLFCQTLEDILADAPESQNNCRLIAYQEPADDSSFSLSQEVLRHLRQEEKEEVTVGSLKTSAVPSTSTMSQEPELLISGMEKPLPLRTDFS
Method in brief: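 THP1-Dual cells preincubated 10 min with compound, then stimulated with 5 μM 2′,3′-cGAMP for 20 hr. Secreted Lucia luciferase (IRF reporter) measured in supernatant by luminescence; IC50 reported as ranges (A ≤1 μM, B >1–≤10 μM, C >10 μM).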

Row | SMILES | IC50 [µM]
1 | NC(=O)c1cc2c(cc1NC(=O)Nc1ccc3cc[nH]c3c1)OCC(=O)N2Cc1ccccc1 [Example 165, 7-(3-(H-indol-6-yl)ureido)-4-benzyl-3-oxo-3,4-dihydro-2H-benzo[b][1, 4]oxazine-6-carboxamide] | 1 to 10
2 | O=C(Nc1ccc2cc[nH]c2c1)Nc1cc2c(cc1Br)N(Cc1ccccc1)C(=O)CO2 [Example 166, 1-(4-benzyl-6-bromo-3-oxo-3,4-dihydro-2H-benzo[b][1, 4]oxazin-7-yl)-3-(1H-indol-6-yl)urea] | 1 to 10
3 | O=C(Nc1ccc2c(c1)N(Cc1ccccc1)CC[S+]2[O-])Nc1ccc2cc[nH]c2c1 (stereo not shown) [Example 167, 1-(4-benzyl-1-oxido-3,4-dihydro-2H-benzo[b][1, 4]thiazin-6-yl)-3-(1H-indol-6-yl)urea] | > 10
4 | CN1CCSc2ccc(NC(=O)Nc3ccc4cc[nH]c4c3)cc21 [Example 168, 1-(1H-indol-6-yl)-3-(4-methyl-3,4-dihydro-2H-benzo[b][1, 4]thiazin-6-yl)urea] | > 10
5 | O=C(Nc1ccc2c(c1)N(Cc1c(F)cccc1Cl)CCO2)Nc1ccc2cc[nH]c2c1 [Example 169, 1-(4-(2-chloro-6-fluorobenzyl)-3,4-dihydro-2H-benzo[b][1, 4]oxazin-6-yl)-3-(1H-indol-6-yl)urea] | ≤ 1
6 | O=C(Nc1ccc2c(c1)OCCN2Cc1c(F)cccc1Cl)Nc1ccc2cc[nH]c2c1 [Example 170, 1-(4-(2-chloro-6-fluorobenzyl)-3,4-dihydro-2H-benzo[b][1, 4]oxazin-7-yl)-3-(1H-indol-6-yl)urea] | 1 to 10
7 | O=C(Nc1ccc2c(c1)SCCN2Cc1c(F)cccc1Cl)Nc1ccc2cc[nH]c2c1 [Example 171, 1-(4-(2-chloro-6-fluorobenzyl)-3,4-dihydro-2H-benzo[b][1, 4]thiazin-7-yl)-3-(1H-indol-6-yl)urea] | ≤ 1
8 | O=C(Nc1ccc2c(c1)N(Cc1ccccc1)CCO2)Nc1ccc2cc[nH]c2n1 [Example 172, 1-(4-benzyl-3,4-dihydro-2H-benzo[b][1, 4]oxazin-6-yl)-3-(1H-pyrrolo[2,3-b]pyridin-6-yl)urea] | 1 to 10
9 | O=C(Nc1ccc(F)cc1)Nc1ccc2c(c1)N(Cc1ccccc1)CCS2 [Example 173, 1-(4-benzyl-3,4-dihydro-2H-benzo[b][1, 4]thiazin-6-yl)-3-(4-fluorophenyl) urea] | 1 to 10
10 | O=C(Nc1ccc2c(c1)N(Cc1ccc(OC(F)(F)F)cc1F)CCO2)Nc1ccc2cc[nH]c2c1 [Example 174, 1-(4-(2-fluoro-4-(trifluoro-methoxy)benzyl)-3,4-dihydro-2H-benzo[b][1, 4]oxazin-6-yl)-3-(1H-indol-6-yl)urea] | ≤ 1
11 | O=S(=O)(Nc1ccc2c(c1)OCCN2c1ccccc1)Nc1ccc2cc[nH]c2c1 [Example 175, N-1H-indol-6-yl-N′-(4-phenyl-3,4-dihydro-2H-1,4-benzoxazin-7-yl)sulfuric diamide] | 1 to 10
12 | O=S(=O)(Nc1ccc2c(c1)N(Cc1ccccc1)CCO2)Nc1ccc2cc[nH]c2c1 [Example 176, 4-Benzyl-N-(1H-indol-6-ylsulfamoyl)-2,3-dihydro-1,4-benzoxazin-6-amine] | 1 to 10
13 | O=C(Nc1ccc2c(c1)N(Cc1ccccc1)CCO2)Nc1cnc2cc[nH]c2c1 [Example 177, 1-(4-benzyl-3,4-dihydro-2H-benzo[b][1, 4]oxazin-6-yl)-3-(1H-pyrrolo[3,2-b]pyridin-6-yl)urea] | 1 to 10
14 | CN(C(=O)Nc1ccc2cc[nH]c2c1)c1ccc2c(c1)N(Cc1ccccc1)CCO2 [Example 178, 1-(4-benzyl-3,4-dihydro-2H-benzo[b][1, 4]oxazin-6-yl)-3-(1H-indol-6-yl)-1-methylurea] | 1 to 10

Further lines, results first:

Row | IC50 [µM] | SMILES
15 | 1 to 10 | NC(=O)c1cc2c(cc1NC(=O)Nc1ccc3cc[nH]c3c1)N(Cc1ccccc1)CCO2 [Example 179, 6-(3-(1H-indol-6-yl)ureido)-4-benzyl-3,4-dihydro-2H-benzo[b][1, 4]oxazine-7-carboxamide]
16 | 1 to 10 | O=C(Nc1ccc2cc[nH]c2c1)Nc1cc2c(cc1Br)OCCN2Cc1ccccc1 [Example 180, 1-(4-benzyl-7-bromo-3,4-dihydro-2H-benzo[b][1, 4]oxazin-6-yl)-3-(1H-indol-6-yl)urea]
17 | ≤ 1 | O=C(Nc1ccc2c(c1)OCCN2c1ccccc1)Nc1ccc2cc[nH]c2c1 [Example 181, 1-(1H-indol-6-yl)-3-(4-phenyl-3,4-dihydro-2H-benzo[b][1,4]oxazin-7-yl)urea]
18 | ≤ 1 | O=C(Nc1ccc2c(c1)SCCN2c1ccccc1)Nc1ccc2cc[nH]c2c1 [Example 182, 1-(1H-indol-6-yl)-3-(4-phenyl-3,4-dihydro-2H-benzo[b][1,4]thiazin-7-yl)urea]
19 | > 10 | O=C(Nc1ccc2c(c1)N(c1ccccc1)C(=O)CO2)Nc1ccc2cc[nH]c2c1 [Example 183, 1-(1H-indol-6-yl)-3-(3-oxo-4-phenyl-3,4-dihydro-2H-benzo[b][1,4]oxazin-6-yl)urea]
20 | 1 to 10 | O=C(Nc1ccc2c(c1)N(c1ccccc1)CCO2)Nc1ccc2cc[nH]c2c1 [Example 184, 1-(1H-indol-6-yl)-3-(4-phenyl-3,4-dihydro-2H-benzo[b][1,4]oxazin-6-yl)urea]
21 | ≤ 1 | O=C(Nc1ccc2c(c1)OCCN2c1ncco1)Nc1ccc2cc[nH]c2c1 [Example 185, 1-(1H-indol-6-yl)-3-(4-(oxazol-2-yl)-3,4-dihydro-2H-benzo[b][1,4]oxazin-7-yl)urea]
22 | 1 to 10 | N#CC1COc2cc(NC(=O)Nc3ccc4cc[nH]c4c3)ccc2N1Cc1ccccc1 (stereo not shown) [Example 186, 1-(4-benzyl-3-cyano-3,4-dihydro-2H-benzo[b][1,4]oxazin-7-yl)-3-(1H-indol-6-yl)urea]
23 | 1 to 10 | NCC1COc2cc(NC(=O)Nc3ccc4cc[nH]c4c3)ccc2N1Cc1ccccc1 (stereo not shown) [Example 187, 1-(3-(aminomethyl)-4-benzyl-3,4-dihydro-2H-benzo[b][1,4]oxazin-7-yl)-3-(1H-indol-6-yl)urea]
24 | 1 to 10 | NC(=O)C1COc2cc(NC(=O)Nc3ccc4cc[nH]c4c3)ccc2N1Cc1ccccc1 (stereo not shown) [Example 188, 7-(3-(1H-indol-6-yl)ureido)-4-benzyl-3,4-dihydro-2H-benzo[b][1,4]oxazine-3-carboxamide]
25 | 1 to 10 | CNC(=O)C(c1ccccc1)N1CCOc2ccc(NC(=O)Nc3ccc4cc[nH]c4c3)cc21 (stereo not shown) [Example 189, 2-(6-(3-(1H-indol-6-yl)ureido)-2,3-dihydro-4H-benzo[b][1,4]oxazin-4-yl)-N-methyl-2-phenylacetamide]
26 | 1 to 10 | O=C(Nc1ccc2c(c1)N(C(C(=O)NC1CC1)c1ccccc1)CCO2)Nc1ccc2cc[nH]c2c1 (stereo not shown) [Example 190, 2-(6-(3-(1H-indol-6-yl)ureido)-2,3-dihydro-4H-benzo[b][1,4]oxazin-4-yl)-N-cyclopropyl-2-phenylacetamide]
27 | 1 to 10 | O=C1CSc2ccc(N3CCN(c4ccc5cc[nH]c5c4)CC3)cc2N1Cc1ccccc1 [Example 191, 6-(4-(1H-Indol-6-yl)piperazin-1-yl)-4-benzyl-2H-benzo[b][1,4]thiazin-3(4H)-one]
28 | > 10 | N#C/N=C(\Nc1ccc2c(c1)N(Cc1ccccc1)C(=O)CS2)Nc1ccc2cc[nH]c2c1 [Example 192]
29 | > 10 | CN1C(=O)CSc2ccc(NC(=O)Nc3ccc(F)cc3)cc21 [Example 193, l-(4-fluorophenyl)-3-(4-methyl-3-oxo-3,4-dihydro-2H-benzo[b][1, 4]thiazin-6-yl)urea]
30 | > 10 | Nc1ncc2c(n1)CCN(C(=O)Nc1ccc3c(c1)N(Cc1ccccc1)C(=O)CS3)C2 [Example 194, 2-amino-N-(4-benzyl-3-oxo-3,4-dihydro-2H-benzo[b][1, 4]thiazin-6-yl)-7,8-dihydropyrido [4,3-d] pyrimidine-6(5H)-carboxamide]
31 | > 10 | O=C1CSc2ccc(NC(=O)Nc3ccc4cc[nH]c4c3)cc2N1 [Example 195, 1-(1H-indol-6-yl)-3-(3-oxo-3,4-dihydro-2H-benzo[b][1, 4]thiazin-6-yl)urea]
